Molecules are shown by their SMILES.

This is an account of results in patent US11365186B2, “Substituted benzimidazoles, their preparation and their use as pharmaceuticals” (Epigenetix, Inc., priority 2015, dated 2022).

This experiment concerns human C-Myc transcription in MV-4-11 cells. Nature of the experiment: Transcription of human C-Myc in human leukemic MV-4-11 cells (QuantiGene 2.0). In kind it is cell-based. The following applies: inhibition of C-Myc mRNA transcription, 4 hours treatment, read-out: IC50 MV-4-11 Cell. How it is done:
b) Transcription of Human C-Myc in Human Leukemic MV-4-11 Cells:
The effect of compounds on transcription of human C-Myc gene is monitored in human B-myelomonocytic leukemia cell line MV-4-11 (from American Type Culture Collection (ATCC), Manassas, Va., USA) using QuantiGene 2.0 assay kit (Affymetrix, Santa Clara, Calif., USA).
Typically, 8,000 MV-4-11 cells are plated in sterile 96-well plates (Costar #3598 from Fisher Scientific Canada, Ottawa, Ontario, Canada) in Iscove's medium supplemented with 10% fetal bovine serum, glutamine (2 mM), and penicillin (100 I.U.) and streptomycin (100 μg/mL) (all from Wisent Inc., St. Bruno, Quebec, Canada). Compounds are dissolved in DMSO at 30 mM. A series of 1:3 dilutions are first made in DMSO, and further […] dilutions are made in serum-containing cell culture media. The final concentration of DMSO is 0.1% in cell culture media. After cells are treated with various concentrations of test compound for 4 hours, cells are lysed using Quantigene 2.0 sample processing kit (#QS0100). C-Myc mRNA is detected using a QuantiGene 2.0 assay kit (#QS0009) with gene-specific probe to human C-Myc (#SA-50182) following the manufacturer's recommendations. Luminescence signals are read on Flexstation II microplate reader (Molecular Devices, Sunnyvale, Calif., USA).

In general, IC50 refers to the concentration that gives 50% inhibition. On to `COC1CC(c2nc3ccc(-c4cc(C)c(=O)n(C)c4)cc3n2CCOCC(F)(F)F)C1` (stereo not shown) [Compound 63, 5-[2-(3-methoxycyclobutyl)-1-(2-(2,2,2-trifluoroethoxy)ethyl)-1H-benzo[d]imidazol-6-yl]-1,3-dimethylpyridin-2(1H)-one], for which the IC50 amounted to 17 nM.
